The subject of series [1] is human drug metabolizing enzymes and transporters. Briefly: Inhibitory DDI index of XueBiJing compounds as perpetrators. The conditions noted are these: XueBiJing at label dose; range over the named compounds.
Series [2] concerns CYP1A2. As to conditions: higher concentrations; range over the named compounds and enzymes.
For series [3] the following is noted: cited from earlier work; for fu-p (unbound fraction in plasma): human plasma.
For series [4] the following is noted: XueBiJing compounds, cited from earlier work; for LogD(7.4): pH 7.4.
For series [5] the following is noted: XueBiJing compounds; cited from earlier work.
The target in series [6] is T1, OAT3 (Homo sapiens, UniProt Q8TCC7).
T1 sequence (Q8TCC7 1-542): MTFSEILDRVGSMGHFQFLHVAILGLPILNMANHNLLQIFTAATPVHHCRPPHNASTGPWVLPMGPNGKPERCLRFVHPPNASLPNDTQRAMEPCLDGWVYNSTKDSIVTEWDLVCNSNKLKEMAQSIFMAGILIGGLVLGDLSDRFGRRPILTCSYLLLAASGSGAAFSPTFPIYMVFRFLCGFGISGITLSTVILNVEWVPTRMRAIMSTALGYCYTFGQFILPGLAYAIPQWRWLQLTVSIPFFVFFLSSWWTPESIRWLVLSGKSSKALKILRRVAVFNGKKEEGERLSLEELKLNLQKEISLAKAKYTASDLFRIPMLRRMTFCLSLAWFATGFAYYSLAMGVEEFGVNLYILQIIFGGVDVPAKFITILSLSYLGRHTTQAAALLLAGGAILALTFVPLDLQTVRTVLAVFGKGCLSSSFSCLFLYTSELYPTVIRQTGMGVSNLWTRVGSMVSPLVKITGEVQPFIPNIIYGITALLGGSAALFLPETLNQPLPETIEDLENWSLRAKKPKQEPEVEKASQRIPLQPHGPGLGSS
In kind it is in vitro ADME.

The conditions of series [7]: ref Supporting Information Table S2; cited from earlier work.
Series [8] is classed as in vivo. The conditions noted are these: human; XueBiJing at label dose 100 mL.
Series [9] relates to CYP3A4. As to conditions: higher concentrations; range over the named compounds and enzymes.
Series [10] has as its system P450 enzymes, UGTs, SULTs, OATP1B1/1B3, OAT1/3, OCT2, MATE1/2-K, MDR1, BCRP. As to conditions: cited from earlier work.
Series [11] deals with T2, UGT2B15 (Homo sapiens, UniProt P54855).
T2 sequence (P54855 24-530): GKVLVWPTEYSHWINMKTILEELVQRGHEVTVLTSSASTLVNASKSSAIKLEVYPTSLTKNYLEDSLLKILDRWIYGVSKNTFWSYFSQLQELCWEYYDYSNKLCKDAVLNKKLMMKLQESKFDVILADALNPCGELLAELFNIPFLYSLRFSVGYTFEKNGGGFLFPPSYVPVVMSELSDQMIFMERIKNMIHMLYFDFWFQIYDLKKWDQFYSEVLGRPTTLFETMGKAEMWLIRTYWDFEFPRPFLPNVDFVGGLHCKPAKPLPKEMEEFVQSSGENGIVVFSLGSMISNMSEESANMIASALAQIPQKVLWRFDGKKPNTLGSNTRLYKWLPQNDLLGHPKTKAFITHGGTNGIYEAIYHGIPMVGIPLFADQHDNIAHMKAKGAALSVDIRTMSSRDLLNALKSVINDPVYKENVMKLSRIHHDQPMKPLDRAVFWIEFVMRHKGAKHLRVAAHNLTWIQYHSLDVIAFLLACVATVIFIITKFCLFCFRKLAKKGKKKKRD
As to conditions: read-out: Km as UGT2B15 substrate; cited from earlier work.

Where [12] appears, read: human, XueBiJing 100 mL via 75-min intravenous infusion.

Here are results for two compounds from PMC6804443 (Acta Pharmaceutica Sinica. B, 2019).

As to `O=C(O)c1ccc(O)c(O)c1` [X11, protocatechuic acid], the “DDI index for inhibition of CYP2C9, CYP2C19, OATP1B1, OATP1B3, OAT1 and/or OAT3” value in [1] is 0.00003–0.06. For the same compound, the “mRNA-T/U ratio, CYP1A2” value in series [2] was in the range of 4.0 to 9.6. In addition, the “fu-p (unbound fraction in plasma)” value in series [3] is on record as 79%. Moreover, in series [3] (setting [12]), the Cmax (commonly the peak of the concentration-time curve) is 40 nM and the t1/2 was 30 min. Moreover, the Major elimination route entry in series [3] (human) was “Hepatic methylation and sulfation”. Moreover, in series [4], the pKa (in general, the pH at which an ionisable group is half protonated) is listed as 4.5 and the “LogD(7.4)” value was −1.9. Also, the Membrane permeability entry in [5] is recorded as “Intermediate”. Further, in series [6], half-maximal inhibition (IC50) required 28 ± 7 µM. In addition, the “Effective concentration(s)” value in series [7] was 1 to 130 µmol/L. Moreover, the “Unbound Cmax” value in series [8] worked out at 30 nM. In [9], the “mRNA-T/U ratio, CYP3A4” value lay in the range of 4.0 to 9.6.
As for `CCC/C=C1\OC(=O)C2=C1CC[C@@H](O)[C@@H]2O` [X5, senkyunolide I], in series [10], the “Related metabolism and transport data (substrate status)” value was “Highly selective UGT2B15 substrate”. Besides, the “fu-p (unbound fraction in plasma)” value in series [3] is given as 54%. Moreover, in [3] (setting [12]), the Cmax is 400 nM, the VSS is on record as 1.26 L/kg and the t1/2 was 48 min. The Major elimination route result in series [3] (human) is “Hepatic glucuronidation, to form senkyunolide I-7-O-β-glucuronide (X6) (This results in formation of a glutathione conjugate, suggesting formation of electrophilic metabolite.)”. Moreover, in [4], the pKa is 12.8 and the “LogD(7.4)” value was 0.8. In addition, the Membrane permeability result in series [5] is recorded as “Good”. In addition, in series [11], the Km – broadly, the substrate concentration at which the rate is half of its maximum – is 18.4 µM.
